SMILES strings stand for the structures. Some results are limits rather than exact numbers.

The test system of one test is 786-0. Briefly: NCI-60 single-dose screen. It counts as cell-based. To be noted: Homo sapiens, single dose 10 µM, '-' = no inhibition, read-out: % Growth Inhibition. In short, it runs like this: (§1)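 NCI Developmental Therapeutics Program screen across 60 human cancer cell lines from nine tumor types; compounds tested at a single dose of 10 μM.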
For orientation: inhibition means the drop in the measured response relative to a control, in per cent. In the case of `COc1ccc(-c2cc(-c3cccc(OC)c3)nc(SC)n2)cc1` [Compound 16, 6-(3-Methoxyphenyl)-4-(4-methoxyphenyl)-2-(methylthio)pyrimidine], the inhibition at 10 µM is < 0%.

The test system of the next test is A498. Briefly: NCI-60 single-dose screen. The format is cell-based. Conditions: Homo sapiens, single dose 10 µM, '-' = no inhibition, read-out: % Growth Inhibition. Summed up: as §1
`COc1ccc(-c2cc(-c3cccc(OC)c3)nc(SC)n2)cc1` [Compound 16, 6-(3-Methoxyphenyl)-4-(4-methoxyphenyl)-2-(methylthio)pyrimidine]: the inhibition at 10 µM was < 0%.

For the next test, the system named is A549/ATCC. In words: NCI-60 single-dose screen. Conditions: Homo sapiens, single dose 10 µM, '-' = no inhibition, read-out: % Growth Inhibition. It counts as cell-based. Summed up: as §1
For `COc1ccc(-c2cc(-c3cccc(OC)c3)nc(SC)n2)cc1` [Compound 16, 6-(3-Methoxyphenyl)-4-(4-methoxyphenyl)-2-(methylthio)pyrimidine], the inhibition at 10 µM was determined as 13%.

The subject of another test is ACHN 1. In words: NCI-60 single-dose screen. The format is cell-based. Conditions: Homo sapiens, single dose 10 µM, '-' = no inhibition, read-out: % Growth Inhibition. In short, it runs like this:
as §1
`COc1ccc(-c2cc(-c3cccc(OC)c3)nc(SC)n2)cc1` [Compound 16, 6-(3-Methoxyphenyl)-4-(4-methoxyphenyl)-2-(methylthio)pyrimidine]: the inhibition at 10 µM was < 0%.

The test system of another test is BT-549. Briefly: NCI-60 single-dose screen. The format is cell-based. To be noted: Homo sapiens, single dose 10 µM, '-' = no inhibition, read-out: % Growth Inhibition. In short, it runs like this:
as §1
For `COc1ccc(-c2cc(-c3cccc(OC)c3)nc(SC)n2)cc1` [Compound 16, 6-(3-Methoxyphenyl)-4-(4-methoxyphenyl)-2-(methylthio)pyrimidine], the inhibition at 10 µM worked out at 3.3%.

The test system of a further test is CCRF-CEM. In words: NCI-60 single-dose screen. It counts as cell-based. Conditions: Homo sapiens, single dose 10 µM, '-' = no inhibition, read-out: % Growth Inhibition. In short, it runs like this: as §1
In the case of `COc1ccc(-c2cc(-c3cccc(OC)c3)nc(SC)n2)cc1` [Compound 16, 6-(3-Methoxyphenyl)-4-(4-methoxyphenyl)-2-(methylthio)pyrimidine], the inhibition at 10 µM amounted to 8.85%.

The next test relates to COLO 205. Briefly: NCI-60 single-dose screen. To be noted: Homo sapiens, single dose 10 µM, '-' = no inhibition, read-out: % Growth Inhibition. It counts as cell-based. In short, it runs like this:
as §1
`COc1ccc(-c2cc(-c3cccc(OC)c3)nc(SC)n2)cc1` [Compound 16, 6-(3-Methoxyphenyl)-4-(4-methoxyphenyl)-2-(methylthio)pyrimidine]: the inhibition at 10 µM was < 0%.

A further test deals with EKVX. Briefly: NCI-60 single-dose screen. The format is cell-based. Conditions: Homo sapiens, single dose 10 µM, '-' = no inhibition, read-out: % Growth Inhibition. Summed up: as §1
Take `COc1ccc(-c2cc(-c3cccc(OC)c3)nc(SC)n2)cc1` [Compound 16, 6-(3-Methoxyphenyl)-4-(4-methoxyphenyl)-2-(methylthio)pyrimidine]: the inhibition at 10 µM was found to be 21.7%.

Another test deals with HCC-2998. Briefly: NCI-60 single-dose screen. The format is cell-based. To be noted: Homo sapiens, single dose 10 µM, '-' = no inhibition, read-out: % Growth Inhibition. Summed up:
as §1
As for `COc1ccc(-c2cc(-c3cccc(OC)c3)nc(SC)n2)cc1` [Compound 16, 6-(3-Methoxyphenyl)-4-(4-methoxyphenyl)-2-(methylthio)pyrimidine], the inhibition at 10 µM is < 0%.

Another test has as its system HCT-15. Briefly: NCI-60 single-dose screen. The format is cell-based. To be noted: Homo sapiens, single dose 10 µM, '-' = no inhibition, read-out: % Growth Inhibition. Summed up:
as §1
`COc1ccc(-c2cc(-c3cccc(OC)c3)nc(SC)n2)cc1` [Compound 16, 6-(3-Methoxyphenyl)-4-(4-methoxyphenyl)-2-(methylthio)pyrimidine]: the inhibition at 10 µM was found to be 19.5%.

Another test deals with HL-60(TB). Briefly: NCI-60 single-dose screen. Conditions: Homo sapiens, single dose 10 µM, '-' = no inhibition, read-out: % Growth Inhibition. It counts as cell-based.
For the compound `COc1ccc(-c2cc(-c3cccc(OC)c3)nc(SC)n2)cc1` [Compound 16, 6-(3-Methoxyphenyl)-4-(4-methoxyphenyl)-2-(methylthio)pyrimidine], the inhibition at 10 µM stood at 22.2%.

The next test deals with HOP-62. In words: NCI-60 single-dose screen. To be noted: Homo sapiens, single dose 10 µM, '-' = no inhibition, read-out: % Growth Inhibition. The format is cell-based. Summed up:
as §1
On to `COc1ccc(-c2cc(-c3cccc(OC)c3)nc(SC)n2)cc1` [Compound 16, 6-(3-Methoxyphenyl)-4-(4-methoxyphenyl)-2-(methylthio)pyrimidine], for which the inhibition at 10 µM was 1.53%.

The next test deals with HT29. Briefly: NCI-60 single-dose screen. It counts as cell-based. To be noted: Homo sapiens, HT-29, single dose 10 µM, '-' = no inhibition, read-out: % Growth Inhibition. Summed up:
as §1
With `COc1ccc(-c2cc(-c3cccc(OC)c3)nc(SC)n2)cc1` [Compound 16, 6-(3-Methoxyphenyl)-4-(4-methoxyphenyl)-2-(methylthio)pyrimidine], the inhibition at 10 µM was found to be 26.2%.

For the next test, the system named is IGROV1. In words: NCI-60 single-dose screen. The format is cell-based. To be noted: Homo sapiens, IGROV-1, single dose 10 µM, '-' = no inhibition, read-out: % Growth Inhibition. In short, it runs like this: as §1
As to `COc1ccc(-c2cc(-c3cccc(OC)c3)nc(SC)n2)cc1` [Compound 16, 6-(3-Methoxyphenyl)-4-(4-methoxyphenyl)-2-(methylthio)pyrimidine], the inhibition at 10 µM was < 0%.

The subject of a further test is K-562. In words: NCI-60 single-dose screen. It counts as cell-based. Conditions: Homo sapiens, K562, single dose 10 µM, '-' = no inhibition, read-out: % Growth Inhibition. In short, it runs like this:
as §1
For `COc1ccc(-c2cc(-c3cccc(OC)c3)nc(SC)n2)cc1` [Compound 16, 6-(3-Methoxyphenyl)-4-(4-methoxyphenyl)-2-(methylthio)pyrimidine], the inhibition at 10 µM amounted to 26.9%.

Another test has as its system LOX IMVI. In words: NCI-60 single-dose screen. The format is cell-based. To be noted: Homo sapiens, single dose 10 µM, '-' = no inhibition, read-out: % Growth Inhibition. Summed up: as §1
In the case of `COc1ccc(-c2cc(-c3cccc(OC)c3)nc(SC)n2)cc1` [Compound 16, 6-(3-Methoxyphenyl)-4-(4-methoxyphenyl)-2-(methylthio)pyrimidine], the inhibition at 10 µM is 0.51%.

In a further test the test system is M14. In words: NCI-60 single-dose screen. The format is cell-based. Conditions: Homo sapiens, single dose 10 µM, '-' = no inhibition, read-out: % Growth Inhibition. In short, it runs like this:
as §1
`COc1ccc(-c2cc(-c3cccc(OC)c3)nc(SC)n2)cc1` [Compound 16, 6-(3-Methoxyphenyl)-4-(4-methoxyphenyl)-2-(methylthio)pyrimidine]: the inhibition at 10 µM was < 0%.

A further test has as its system MALME-3M. In words: NCI-60 single-dose screen. To be noted: Homo sapiens, single dose 10 µM, '-' = no inhibition, read-out: % Growth Inhibition. The format is cell-based. In short, it runs like this:
as §1
As to `COc1ccc(-c2cc(-c3cccc(OC)c3)nc(SC)n2)cc1` [Compound 16, 6-(3-Methoxyphenyl)-4-(4-methoxyphenyl)-2-(methylthio)pyrimidine], the inhibition at 10 µM was < 0%.

In a further test the test system is MCF7. In words: NCI-60 single-dose screen. It counts as cell-based. To be noted: Homo sapiens, single dose 10 µM, '-' = no inhibition, read-out: % Growth Inhibition. Summed up: as §1
In the case of `COc1ccc(-c2cc(-c3cccc(OC)c3)nc(SC)n2)cc1` [Compound 16, 6-(3-Methoxyphenyl)-4-(4-methoxyphenyl)-2-(methylthio)pyrimidine], the inhibition at 10 µM is 11.3%.

The subject of the next test is MDA-MB-468. Briefly: NCI-60 single-dose screen. To be noted: Homo sapiens, single dose 10 µM, '-' = no inhibition, read-out: % Growth Inhibition. It counts as cell-based. Summed up: as §1
`COc1ccc(-c2cc(-c3cccc(OC)c3)nc(SC)n2)cc1` [Compound 16, 6-(3-Methoxyphenyl)-4-(4-methoxyphenyl)-2-(methylthio)pyrimidine]: the inhibition at 10 µM stood at 17.4%.

A further test deals with MDA-MB231/ATCC. Briefly: NCI-60 single-dose screen. The format is cell-based. Conditions: Homo sapiens, MDA-MB-231, single dose 10 µM, '-' = no inhibition, read-out: % Growth Inhibition. Summed up:
as §1
In the case of `COc1ccc(-c2cc(-c3cccc(OC)c3)nc(SC)n2)cc1` [Compound 16, 6-(3-Methoxyphenyl)-4-(4-methoxyphenyl)-2-(methylthio)pyrimidine], the inhibition at 10 µM turned out to be 11%.

A further test concerns NCI-H23. In words: NCI-60 single-dose screen. Conditions: Homo sapiens, single dose 10 µM, '-' = no inhibition, read-out: % Growth Inhibition. The format is cell-based. In short, it runs like this:
as §1
`COc1ccc(-c2cc(-c3cccc(OC)c3)nc(SC)n2)cc1` [Compound 16, 6-(3-Methoxyphenyl)-4-(4-methoxyphenyl)-2-(methylthio)pyrimidine]: the inhibition at 10 µM turned out to be 2.58%.

Another test concerns NCI-H322M. Briefly: NCI-60 single-dose screen. It counts as cell-based. Conditions: Homo sapiens, single dose 10 µM, '-' = no inhibition, read-out: % Growth Inhibition. In short, it runs like this:
as §1
Regarding `COc1ccc(-c2cc(-c3cccc(OC)c3)nc(SC)n2)cc1` [Compound 16, 6-(3-Methoxyphenyl)-4-(4-methoxyphenyl)-2-(methylthio)pyrimidine], the inhibition at 10 µM is < 0%.

(Values after article PMC11576293, “New series of 4,6-diaryl pyrimidines: facile synthesis and antiproliferative activity as dual EGFR/VEGFR-2 inhibitors” (Frontiers in Chemistry, 2024).)
